Source: patent publication US8815939B2, “Substituted sulfamide derivatives” (Janssen Pharmaceutica NV, priority 2008, dated 2014)

Experiments:
Assay type in all cases: in vivo
[1] = test system: CF-1 male albino mice; test: Maximal Electroshock Test (MES), anticonvulsant activity
Method: Anticonvulsant activity was determined using the MES test, run according to the procedure described in detail below. Swinyard E A, Woodhead J H, White H S, Franklin M R. Experimental selection, quantification, and evaluation of anticonvulsants. In Levy R H, et al., eds. Antiepileptic Drugs. 3rd ed. New York: Raven Press, 1989:85-102.
CF-1 male albino mice (25-35 g) were fasted for 16 hours before testing. Mice were randomly selected into control and test groups, with the animals dosed with vehicle or test compound, at varying concentrations, respectively. […] Seizures were induced by trans-corneal electric shock using a 60-Hz alternating current, 50 mA, delivered for 0.2 sec. […] […] The test was complete when the entire course of the convulsion has been observed (typically, less than 1 minute after electrical stimulation), and the mice were then immediately euthanized by carbon dioxide inhalation.
Abolition of the full body tonic extensor component of the seizure was taken as the endpoint of the test. […] The ED50 value of the test compound (calculated when appropriate) was the calculated dose required to block the hind limb tonic-extensor component of the MES-induced seizure in 50% of the rodents tested. A probit analysis was used to calculate the ED50 and 95% fiducial limits (FL).
Results are listed as (number of mice with full body tonic extension prevented)/(total number of mice tested) (@ a given time).

[2] = Mice studies dosing with the compound of formula (A): plasma and brain analyses; conditions: mice dosed with the compound of formula (A)
Text: (§1) The compound of formula (A) was initially isolated from human plasma samples from clinical trials dosing with the compound of formula (S). Additionally, the compound of formula (A) is a pro-drug of the compound of formula (S).

[3] = Human plasma samples from clinical trials dosing with the compound of formula (S)
Text: and pharmaceutically acceptable salts thereof.
as §1

CC(=O)NS(=O)(=O)NC[C@H]1COc2cc(Cl)ccc2O1 [Compound (A), (2S)-(−)-N′-acetyl-N-(6-chloro-2,3-dihydro-benzo[1,4]dioxin-2-ylmethyl)-sulfamide]
MES Activity, (number of mice with full body tonic extension prevented)/(total number of mice tested) ([1]; 200 mg/kg po, 0.50 Hrs): 0/5
MES Activity, (number of mice with full body tonic extension prevented)/(total number of mice tested) ([1]; 200 mg/kg po, 1.0 Hrs): 1/5
MES Activity, (number of mice with full body tonic extension prevented)/(total number of mice tested) ([1]; 200 mg/kg po, 2 Hrs): 4/5
MES Activity, (number of mice with full body tonic extension prevented)/(total number of mice tested) ([1]; 200 mg/kg po, 3 Hrs): 5/5
MES Activity, (number of mice with full body tonic extension prevented)/(total number of mice tested) ([1]; 200 mg/kg po, 6 Hrs): 2/5
plasma and brain levels of compound (A) and compound (S) after dosing (pro-drug conversion) [2]: levels of the compound of formula (S) higher than those of the compound of formula (A)

NS(=O)(=O)NC[C@H]1COc2cc(Cl)ccc2O1 [Compound (S), (2S)-(−)-N-(6-chloro-2,3-dihydro-benzo[1,4]dioxin-2-ylmethyl)-sulfamide, reference compound]
MES Activity, (number of mice with full body tonic extension prevented)/(total number of mice tested) ([1]; 150 mg/kg po, 3 Hrs): 5/5
metabolite found in human plasma [3]: The compound of formula (A) is a human metabolite of the compound of formula (S)
